Results as given in article PMC8379256, “A xanthene derivative, DS20060511, attenuates glucose intolerance by inducing skeletal muscle-specific GLUT4 translocation in mice” (Communications Biology, 2021).
Where “and” joins values, the source holds several entries; their conditions need not be identical. Equal entries are not always repeated. Where two headings read alike, the source gives them in different places.

Key:
Assay type in all cases: in vivo, mouse
C57BL/6 mice = assay: Blood glucose after DS20060511 alone in fed or overnight food-deprived mice; conditions: for Blood glucose: 30 mg/kg; for blood glucose levels (in words): 30 mg kg−1
Procedure: Fig. 2 Treatment with DS20060511 decreases the blood glucose levels via inducing GLUT4 translocation and increasing skeletal muscle glucose uptake. a, b Blood glucose levels after treatment with DS20060511 (30 mg kg^−1) in C57BL/6 mice that had received continued access to food (a) and mice that had been denied access to food overnight (b) (n = 8). Values shown are means ± SEM. **P < 0.01 vs. 0 min by one-way ANOVA followed by Dunnett’s test. c Blood glucose and plasma insulin levels during oral GTT in the C57BL/6 mice (n = 5–6). The mice received oral administration of vehicle or DS20060511 at the indicated dose, 15 min prior to glucose administration (1.5 g kg^−1). Values shown are means ± SEM. *P < 0.05, **P < 0.01 vs. vehicle by one-way ANOVA followed by Williams’ test. d [^3H]-2-DG uptake in the soleus muscle, gastrocnemius muscle (Gastro.), heart, and white adipose tissue (WAT) at 60 min during the intraperitoneal GTT in the C57BL/6 mice (n = 3). The mice received oral administration of vehicle or DS20060511 (30 mg kg^−1), 15 min prior to glucose administration (1 g kg^−1 glucose containing [^3H]-2-DG). […] Uncropped blots for e can be found in Supplementary Fig. 6.

WT and eNOSKO mice = assay: Oral GTT in wild-type and eNOS-knockout mice; conditions: for Blood glucose: Glucose tolerance test, Wildtype, 10 mg/kg, individual animals
Procedure: Fig. 7 DS20060511 treatment decreases blood glucose levels in both WT and eNOSKO mice during oral GTT and ITT. a, b Blood glucose levels during oral GTT in wild-type (WT, n = 5) and eNOS-knockout (KO, n = 5–6) mice. Mice received vehicle or DS20060511 (10 mg kg^−1) orally 15 min before the glucose administration (3.0 g kg^−1). c, d Blood glucose levels during ITT in WT (n = 4) and KO (n = 5) mice. Vehicle or DS20060511 (30 mg kg^−1) was given orally at the same time as 0.5 U kg^−1 insulin injection intraperitoneally. Values shown are means ± SEM. *P < 0.05, **P < 0.01, ***P < 0.001 vs. vehicle by the t-test.
C57BL/6 and db/db mice were purchased from CLEA Japan, Tokyo, Japan. GLUT4- knockout mice were generated at RIKEN BioResource Center, Tsukuba, Japan, according to a previously described method. eNOS-knockout mice were kindly provided by Dr. Masato Tsutsui[41],[42]. The mice were group-housed under controlled illumination (12:12 h light-dark cycle) and temperature (23 ± 2 °C) conditions and given free access to normal chow and water, unless otherwise specified. The HFD-fed obese mice were prepared by feeding C57BL/6 mice a HFD for at least 8 weeks from 6 weeks of age. […] Male mice were used for all the experiments in this study. The animal care and experimental procedures used in the study were approved by The University of Tokyo Animal Care Committee (Approval number: 27-3), and the study was carried out in accordance with the Animal Experimentation Guidelines of Daiichi Sankyo Co., Ltd (Approved number: 20000411).
Mice that had been denied access to food overnight received the indicated oral dose of DS20060511 or vehicle 15 min prior to the glucose load (1.5 g kg^−1, except for eNOS-knockout mice, which received 3.0 g kg^−1). Then, after the oral glucose load, the blood glucose levels were measured using Glutest Every in samples obtained from the tail vein at the indicated timepoints. Plasma insulin concentrations were also measured with an ELISA kit (Morinaga Institute of Biological Science, Yokohama, Japan) in blood samples collected from the tail vein at the indicated timepoints.

[1] = Tissue concentrations 75 min after oral administration; conditions: for concentration at 75 min: 30 mg/kg, 30 mg/kg oral, individual mice
Procedure: C57BL/6 mice that had been denied access to food overnight received the indicated oral dose of DS20060511, and blood samples were collected from the tail vein at the indicated timepoints. Plasma samples for quantitation of DS20060511 were prepared by centrifugation. Another group of mice received oral administration DS20060511 (30 mg kg^−1) and euthanized 75 min later. The soleus and gastrocnemius muscles, heart, and inguinal WAT were removed and homogenized in water (5 vol.) for quantitation of the drug concentrations. Plasma samples and tissue homogenates were analyzed by LC-MS/MS (Nexera MP System, SHIMADZU, Kyoto, Japan; API4000 System, SCIEX, Framingham, MA). The tissue concentrations of the compound were calculated by assuming the volume of 1 g of tissue is 1 mL. Evaluation of the metabolic stability of the compound to mouse and human cytochrome P450 (CYP) was conducted as follows. The test compound (1 μM) was incubated with pooled liver microsomes (0.1 mg mL^−1) in sodium phosphate buffer (100 mM, pH 7.4) at 37 °C with an NADPH generating system: β-nicotinamide adenine dinucleotide phosphate (β-NADP) 1 mM, D-glucose 6-phosphate (G-6-P) 10 mM, glucose 6-phosphate dehydrogenase (G-6-PDH) 1 U mL^−1, and magnesium chloride 3.3 mM. After 30 min incubation, the reaction was terminated by addition of acetonitrile and samples were analyzed by LC-MS/MS. The results were expressed as the amount of compound remaining (expressed as a percentage), based on the ratio of the relative area to that in the control (without reaction).

Structure (SMILES): COc1ccc2c(C)c(C(=O)O)ccc2c1C1C2=C(CC(C)(C)CC2=O)OC2=C1C(=O)CC(C)(C)C2 [DS20060511]
- Blood glucose (C57BL/6 mice; Non-fasted, 0 min, individual mice): 125 mg/dL and 139 mg/dL and 194 mg/dL and 126 mg/dL and 129 mg/dL and 150 mg/dL and 154 mg/dL and 134 mg/dL
- Blood glucose (C57BL/6 mice; Non-fasted, 30 min): 134 mg/dL and 128 mg/dL and 101 mg/dL and 95 mg/dL and 122 mg/dL and 111 mg/dL and 121 mg/dL and 96 mg/dL
- Blood glucose (C57BL/6 mice; Overnight fasted, 0 min): 58 mg/dL and 52 mg/dL and 73 mg/dL and 46 mg/dL and 54 mg/dL and 55 mg/dL and 61 mg/dL
- Blood glucose (C57BL/6 mice; Overnight fasted, 30 min): 52 mg/dL and 53 mg/dL and 57 mg/dL and 60 mg/dL and 42 mg/dL and 55 mg/dL and 49 mg/dL
- Blood glucose (C57BL/6 mice; Overnight fasted, 60 min): 56 mg/dL and 57 mg/dL and 59 mg/dL and 48 mg/dL and 50 mg/dL and 45 mg/dL
- blood glucose levels (in words) (C57BL/6 mice; mice denied access to food overnight, Fig. 2b): no effect on the blood glucose levels
- blood glucose levels (in words) (C57BL/6 mice; mice with continued access to food, oral, Fig. 2a): modestly, but statistically significantly, reduced the blood glucose levels
- Blood glucose (WT and eNOSKO mice; 0 min): 96 mg/dL and 111 mg/dL and 104 mg/dL and 93 mg/dL and 82 mg/dL
- Blood glucose (WT and eNOSKO mice; 15 min): 260 mg/dL and 212 mg/dL and 232 mg/dL and 229 mg/dL and 231 mg/dL and 181 mg/dL
- Blood glucose (WT and eNOSKO mice; 30 min): 253 mg/dL and 242 mg/dL and 215 mg/dL and 185 mg/dL and 284 mg/dL and 213 mg/dL
- Blood glucose (WT and eNOSKO mice; 60 min): 212 mg/dL and 210 mg/dL and 226 mg/dL and 281 mg/dL and 196 mg/dL
- Blood glucose (WT and eNOSKO mice; 90 min): 159 mg/dL and 172 mg/dL and 132 mg/dL and 150 mg/dL and 218 mg/dL and 154 mg/dL
- Blood glucose (WT and eNOSKO mice; 120 min): 120 mg/dL and 128 mg/dL and 115 mg/dL and 130 mg/dL and 170 mg/dL and 127 mg/dL
- Blood glucose (WT and eNOSKO mice; -15 min): 79 mg/dL and 94 mg/dL and 75 mg/dL and 91 mg/dL and 73 mg/dL and 81 mg/dL
- blood glucose levels during oral GTT (in words) (WT and eNOSKO mice; WT and eNOSKO mice, 10 mg kg−1 po): significantly decreased blood glucose levels in both the WT and eNOSKO mice
- concentration at 75 min ([1]; C57BL/6, mouse, gastrocnemius muscle, po, Gastro. muscle, read-out: Conc. (µM) Gastro.): 8 µM
- concentration at 75 min ([1]; C57BL/6, mouse, heart, po, heart, read-out: Conc. (µM) Heart): 21.3 µM
- concentration at 75 min ([1]; C57BL/6, mouse, inguinal WAT, po, WAT, read-out: Conc. (µM) WAT): 6.8 µM
- concentration at 75 min ([1]; C57BL/6, mouse, soleus muscle, po, soleus, read-out: Conc. (µM) Soleus): 10.8 µM
- concentration at 75 min ([1]; Gastro. muscle, read-out: Conc. (µM) Gastro.): 9.3 µM and 7.1 µM and 8.8 µM
- concentration at 75 min ([1]; WAT, read-out: Conc. (µM) WAT): 5.9 µM and 5.0 µM and 4.1 µM
- concentration at 75 min ([1]; heart, read-out: Conc. (µM) Heart): 21.0 µM and 19.6 µM and 18.0 µM
- concentrations in tissues (in words) ([1]; skeletal muscle, WAT, heart, 75 min after oral 30 mg kg−1): almost comparable concentrations among the skeletal muscle, WAT, and heart
- concentration at 75 min ([1]; soleus, read-out: Conc. (µM) Soleus): 13.8 µM and 9.8 µM and 11.1 µM
